{"source": "paper PMC3879575", "about": "“Evidence That GH115 α-Glucuronidase Activity, Which Is Required to Degrade Plant Biomass, Is Dependent on Conformational Flexibility” (The Journal of Biological Chemistry, 2013)", "key": {"BoAgu115A (BACOVA_03449) [1]": {"biological_target": "T1, BoAgu115A (BACOVA_03449) (Bacteroides ovatus, UniProt A0ABU3IS40)", "T1 construct": "mature form (signal peptide removed), N-terminal His6 tag (pET28a), E. coli BL21 DE3, 824 residues, 85 kDa, homodimer; modelled residues 33-856", "assay": "X-ray crystal structure, […] Å", "type": "binding", "conditions": "crystals soaked with 300 mM GlcA; pH 5.5; active site; open-chain form"}, "BoAgu115A (BACOVA_03449) [2]": {"biological_target": "T1, BoAgu115A (BACOVA_03449)", "assay": "coupled alpha-D-glucuronidase assay kit, NADH at […] nm", "type": "biochemical", "conditions": "PC buffer (50 mM sodium phosphate, 12 mM citrate) pH 6.5, 1 mg/ml BSA, 37 °C"}, "[3]": {"biological_target": "BoAgu115A (BACOVA_03449), GH115 α-glucuronidase of Bacteroides ovatus (Bacteroides ovatus)", "assay": "AUC; sedimentation velocity, interference optics, 48,000 rpm, 20 °C, sample volume 400 μl"}}}
{"compound": "O=C[C@H](O)[C@@H](O)[C@H](O)[C@H](O)C(=O)O", "note": "[GlcA]", "values": [{"measurement": "X-ray crystal structure, 2.14 Å", "setting": "BoAgu115A (BACOVA_03449) [1]", "value": "BoAgu115A was co-crystallized with GlcA, which revealed electron density for the uronic acid"}]}
{"compound": "CO[C@H]1[C@H](O)[C@@H](O)[C@@H](O[C@H]2[C@H](O[C@@H]3CO[C@@H](O[C@@H]4COC(O)[C@H](O)[C@H]4O)[C@H](O)[C@H]3O)OC[C@@H](O[C@@H]3OC[C@@H](O)[C@H](O)[C@H]3O)[C@@H]2O)O[C@@H]1C(=O)O", "note": "(stereo partly shown) [XUXX]", "values": [{"measurement": "Km", "setting": "BoAgu115A (BACOVA_03449) [2]", "value": 4.5, "unit": "mM"}]}
{"compound": "BoAgu115A (BACOVA_03449), GH115 α-glucuronidase of Bacteroides ovatus (enzyme)", "values": [{"measurement": "stoichiometry N", "setting": "[3]", "value": 2}]}
{"compound": "UXX", "values": [{"measurement": "Km", "setting": "BoAgu115A (BACOVA_03449) [2]", "value": 19.5, "unit": "mM"}]}
